Results taken from ChEMBL document CHEMBL3217697, “The discovery of a novel prototype small molecule TLR7 agonist for the treatment of hepatitis C virus infection” (Medchemcomm, 2011).
Activity calls are given as the source filed them. No cut-off for these calls is given here.

Key:
[1] = Intrinsic clearance in human liver microsomes; type: ADME; conditions: read-out: CLH
[2] = Octanol-neutral aqueous buffer partition coefficient, log D of the compound at pH 7.4; type: physicochemical
[3] = system: Hepatitis C virus; assay: Antiviral activity against Hepatitis C virus infected in human HuH7 cells; type: functional, organism-based; conditions: Hepacivirus hominis; Huh-7
[4] = Clearance in rat at 1 mg/kg, iv; type: ADME, organism-based; parameters: dose 1 mg/kg, route intravenous; conditions: in vivo
[5] = Volume of distribution at steady state in rat at 1 mg/kg, iv; type: ADME, organism-based; parameters: dose 1 mg/kg, route intravenous; conditions: in vivo, read-out: Vdss
[6] = Terminal half life in rat at 1 mg/kg, iv; type: ADME, organism-based; parameters: dose 1 mg/kg, route intravenous; conditions: in vivo, read-out: beta t1/2 (converted)
[7] = Oral bioavailability in rat at 2 mg/kg administered as solution; type: ADME, organism-based; conditions: in vivo
[8] = Oral bioavailability in rat at 2 mg/kg administered as suspension; type: ADME, organism-based; conditions: in vivo
[9] = Oral bioavailability in rat at 2 mg/kg administered as nano suspension; type: ADME, organism-based; conditions: in vivo
[10] = Clearance in dog at 0.1 mg/kg, iv; type: ADME, organism-based, Canis lupus familiaris; parameters: dose 0.1 mg/kg, route intravenous; conditions: in vivo
[11] = Volume of distribution at steady state in dog at 0.1 mg/kg, iv; type: ADME, organism-based, Canis lupus familiaris; parameters: dose 0.1 mg/kg, route intravenous; conditions: in vivo, read-out: Vdss
[12] = Terminal half life in dog at 0.1 mg/kg, iv; type: ADME, organism-based, Canis lupus familiaris; parameters: dose 0.1 mg/kg, route intravenous; conditions: in vivo, read-out: beta t1/2 (converted)
[13] = target: T1, Adenosine receptor A1 (Homo sapiens) (UniProt P30542); assay: Inhibition of adenosine A1 receptor (unknown origin) at 10 uM relative to control
T1 sequence (whole entry): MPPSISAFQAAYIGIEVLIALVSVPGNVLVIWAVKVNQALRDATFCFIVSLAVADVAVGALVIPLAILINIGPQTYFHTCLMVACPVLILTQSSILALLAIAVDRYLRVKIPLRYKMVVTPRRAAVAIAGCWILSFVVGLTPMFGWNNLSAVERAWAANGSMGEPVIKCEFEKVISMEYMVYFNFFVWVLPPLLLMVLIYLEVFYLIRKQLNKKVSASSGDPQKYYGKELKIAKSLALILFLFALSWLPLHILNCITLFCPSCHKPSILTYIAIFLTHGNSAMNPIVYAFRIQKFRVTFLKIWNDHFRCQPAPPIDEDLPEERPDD

[14] = target: Acetylcholinesterase (Homo sapiens) (UniProt P22303); assay: Inhibition of human acetylcholinesterase at 10 uM relative to control
Chain of Acetylcholinesterase (Homo sapiens) (P22303 whole entry): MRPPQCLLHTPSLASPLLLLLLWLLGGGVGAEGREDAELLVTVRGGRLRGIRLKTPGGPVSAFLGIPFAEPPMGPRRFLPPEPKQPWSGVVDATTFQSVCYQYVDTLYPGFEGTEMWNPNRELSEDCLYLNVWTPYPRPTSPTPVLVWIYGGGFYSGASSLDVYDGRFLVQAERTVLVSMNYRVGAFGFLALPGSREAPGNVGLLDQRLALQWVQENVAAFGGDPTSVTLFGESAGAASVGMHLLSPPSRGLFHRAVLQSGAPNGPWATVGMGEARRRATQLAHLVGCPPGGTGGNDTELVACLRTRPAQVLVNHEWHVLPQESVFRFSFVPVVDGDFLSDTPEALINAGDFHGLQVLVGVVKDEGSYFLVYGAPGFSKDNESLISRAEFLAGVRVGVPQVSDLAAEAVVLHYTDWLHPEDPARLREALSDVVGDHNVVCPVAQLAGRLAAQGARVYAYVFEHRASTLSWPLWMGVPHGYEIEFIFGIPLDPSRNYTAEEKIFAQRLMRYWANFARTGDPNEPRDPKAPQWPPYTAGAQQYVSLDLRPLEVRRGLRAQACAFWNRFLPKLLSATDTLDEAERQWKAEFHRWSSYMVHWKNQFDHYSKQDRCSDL

[15] = target: Adenosine receptor A2a (Homo sapiens) (UniProt P29274); assay: Inhibition of adenosine A2A receptor (unknown origin) at 10 uM relative to control
Chain of Adenosine receptor A2a (Homo sapiens) (P29274 whole entry): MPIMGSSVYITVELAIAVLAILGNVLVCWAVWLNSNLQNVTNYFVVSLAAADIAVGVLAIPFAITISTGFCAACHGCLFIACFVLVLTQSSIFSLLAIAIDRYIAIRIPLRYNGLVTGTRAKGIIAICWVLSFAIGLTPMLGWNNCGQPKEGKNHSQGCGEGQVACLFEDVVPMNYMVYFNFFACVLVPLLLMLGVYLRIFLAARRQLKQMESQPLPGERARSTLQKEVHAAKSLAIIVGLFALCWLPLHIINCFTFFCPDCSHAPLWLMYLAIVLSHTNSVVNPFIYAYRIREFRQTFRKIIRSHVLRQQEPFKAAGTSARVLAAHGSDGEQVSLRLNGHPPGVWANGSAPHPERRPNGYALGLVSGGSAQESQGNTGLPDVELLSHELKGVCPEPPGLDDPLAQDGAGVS

[16] = system: Mus musculus; assay: Stimulation of IFN-alpha production in po dosed CD-1 mouse; type: functional, organism-based

| Compound | microsomal CLint [1] [µL/min/mg] | logD [2] | Activity [3] | other results |
| --- | --- | --- | --- | --- |
| Cc1cc2c([nH]c(=O)n2Cc2ccccc2)c(N)n1 | < 7 | 2.3 | inactive |  |
| O=c1[nH]n2c(O)nc(C3CC3)cc2c1Cc1ccccc1 | < 7 | 1.7 | inactive |  |
| Cc1nc(N)c2c(n1)N(Cc1ccccc1)C(=O)C2 | < 7 | 2 | inactive |  |
| Nc1nc(C(F)(F)F)cc2c1[nH]c(=O)n2Cc1ccccc1 | < 7 |  |  | clearance [4]: 33 mL/min/kg; Vd [5]: 2.7 L/kg; half-life [6]: 1 h; bioavailability [7]: 48%; bioavailability [8]: 69%; bioavailability [9]: 71%; clearance [10]: 6 mL/min/kg; Vd [11]: 2.3 L/kg; half-life [12]: 5.5 h; inhibition [13]: 29%; inhibition [14]: 70%; inhibition [15]: 32%; EC50 [16]: 58 nM |
| CCCc1cc2c([nH]c(=O)n2Cc2ccccc2)c(N)n1 | 14 | 3.1 |  |  |
| CC(C)c1cc2c([nH]c(=O)n2Cc2ccccc2)c(N)n1 | < 7 | 3.1 |  |  |
| COCCNc1nc(N)c2c(O)nn(Cc3ccccc3)c2n1 |  |  | inactive |  |
| Cc1cc(N)c2[nH]c(=O)n(Cc3ccccc3)c2n1 | < 7 | 2.3 | inactive |  |
| O=c1[nH]c2cnc(C(F)(F)F)cc2n1Cc1ccccc1 | < 7 | 3.1 |  |  |
| Nc1nccc2c1[nH]c(=O)n2Cc1ccccc1 | < 7 | 1.9 |  |  |
| Cc1nc(N)c2sc(=O)n(Cc3ccccc3)c2n1 |  |  | inactive |  |
| Nc1cc(C2CC2)nc2c(Cc3ccccc3)c(=O)[nH]n12 | < 7 | 1.6 | inactive |  |
| Cc1nc(N)c2c(n1)N(Cc1ccccc1)C(=O)NC2 | 16 | 1.6 | inactive |  |
| Cc1nc(N)c2nc(O)n(Cc3ccccc3)c2n1 | < 7 |  | inactive |  |
| Cc1nc(N)c2[nH]c(=O)n(Cc3ccccc3)c2c1C | < 7 | 2.6 | inactive |  |
